A short description of data set [1]: xn = mol fraction of the nth substance listed. To be noted: 101 kPa, Liquid; for viscosity: 297.85 K, Cone and plate viscometry; for mass density: 298.15 K, Vibrating tube method.
The conditions of data set [2]: 297.85 K; 101 kPa; Liquid; Cone and plate viscometry.

Molecules are shown by their SMILES. ± gives the expanded uncertainty stated by the source.

A word on the viscosity: it is the internal friction of a fluid under shear. For orientation: mass density means the mass of a sample divided by its volume.

`CCCC[P+](CCCC)(CCCC)CCCC.O=C[O-]` [tetrabutylphosphonium formate] + O: the viscosity in data set [1] (x2 = 0.25) came to 356 ± 43 mPa·s; in data set [1] (x2 = 0.5), 146 ± 16 mPa·s; in data set [1] (x2 = 0.6), 97 ± 10 mPa·s; in data set [1] (x2 = 0.74) it was 48 ± 4.9 mPa·s; in data set [1] (x2 = 0.8) it was 35.3 ± 3.6 mPa·s; in data set [1] (x2 = 0.91) it was 14.4 ± 1.4 mPa·s. Further, the mass density was determined as 944 ± 1.2 kg/m3 in data set [1] (x2 = 0.25); 945.2 ± 1.1 kg/m3 in data set [1] (x2 = 0.32); 948 ± 1.2 kg/m3 in data set [1] (x2 = 0.5); 950.4 ± 1.4 kg/m3 in data set [1] (x2 = 0.6); 955.5 ± 1 kg/m3 in data set [1] (x2 = 0.74); 959.2 ± 0.9 kg/m3 in data set [1] (x2 = 0.8). In data set [1] (x2 = 0.91), the mass density came out at 974.1 ± 0.7 kg/m3.
As to `O` [water], in data set [2], the viscosity stood at 0.9 ± 0.02 mPa·s.
Take `O` [water] + CCCC[P+](CCCC)(CCCC)CCCC.O=C[O-]: in data set [1] (x1 = 1), the viscosity is reported as 0.9 ± 0.09 mPa·s and the mass density turned out to be 996.8 ± 0.6 kg/m3.
